Key:
[1] = system: isolated rabbit urinary bladder; assay: Relaxation effect on potassium-induced contraction of isolated rabbit urinary bladder; format: cell-based; conditions: Oryctolagus cuniculus, read-out: IC50 value (50% relaxation concentration)
Experimental: Relaxation Effect on Potassium-Induced Contraction of Isolated Rabbit Urinary Bladder
Urinary bladder was isolated from Male NZW rabbits (body weight: 2.0-3.5 kg) and immersed in ice-cold Krebs-bicarbonate solution (in mM: 118 NaCl, 4.7 KCl, 2.55 CaCl2, 1.18 MgSO4, 1.18 KH2PO4, 24.88 NaHCO3 and 11.1 glucose). The urinary bladder was cut into longitudinal strips (5 mm length 3-4 mm width) after mucosal layer was removed.
Preparations were mounted in organ baths containing 10 ml of Krebs solution maintained at 37° C. and gassed with 95% O2/5% CO2. Accordingly, preparations were stretched with an initial tension of 2.0±1.0 g, and changes in isometric tension were measured by force-displacement transducer. The preparations were pre-contracted by changing organ-bath solution into high-K^+ (30 mM) Krebs solution (in mM: 118 NaCl, […], 2.55 CaCl2, 1.18 MgSO4, 1.18 KH2PO4, 24.88 NaHCO3 and 11.1 glucose).
After stable tension was obtained, compounds were added into organ baths cumulatively (10^−8 M-10^−4 M). The effects of compounds were expressed as a percentage of the maximum relaxation produced by 10^−4 M papaverine as 100%. 50% relaxation concentration (IC50) was calculated and IC50 value range (μM) of compounds of the present invention was shown in the following Table 1 with a rank of A, B or C. These ranges are as mentioned below. • 3 μM≧C>1 μM≧B>0.5 μM≧A

[2] = system: rhythmic bladder contractions induced by substance P; assay: Inhibitory effect on the rhythmic bladder contractions induced by substance P in anesthetized rats; format: in vivo, rat; conditions: 0.25 mg/kg intravenous; time during which frequency of rhythmic contraction was completely inhibited; urethane-anesthetized Sprague-Dawley female rats
Experimental: Inhibitory Effect on the Rhythmic Bladder Contractions Induced by Substance P in Anesthetized Rats For the experiments, Sprague-Dawley female rats (9 to 12 weeks old) weighing between 200 to 300 g were used. After urethane anesthetization (subcutaneously administered with a dose of 1.2 g/kg), cannulae were placed in both right and left femoral veins. One intravenous catheter was used for administration of compounds, and the other was for the substance P (0.33 μg/kg/min) infusion. We also cannulated into ureter to pass urine. Polyethylene catheters were inserted into carotid artery for continuous monitoring of arterial blood pressure and heart rate. For continuous infusion, transurethral bladder catheter was inserted into the bladder through the urethra and tied in place by a ligature around the urethral orifice. One end of the catheter was attached to a pressure transducer in order to measure intravesical pressure. The other end of the catheter was used for infusion of saline into the bladder. After stabilization of blood pressure and heart rate and after the bladder was emptied, cystometry was performed by filling the bladder slowly with about 0.6 ml of saline. After about 10 minutes, intravenous infusion of substance P (0.33 μg/kg/min) was started for stabilization of the micturition reflex. […]

| SMILES | IC50 [1] [nM] | 100% inhibiting time [2] [min] |
| --- | --- | --- |
| O=C([O-])Cc1oc(-c2ccccc2)cc1-c1ccc(Cl)s1.[Na+] [2 (Compound 6)] | < 500 | 13.1 |
| O=C([O-])Cc1sc(-c2ccccc2)cc1-c1ccc(Cl)s1.[Na+] [3 (Compound 6)] | 500 to 1000 | 27.1 |
